How the values were obtained:
Format in all cases: in vivo
[1] = test system: Alopecurus myosuroides (ALOMY); test: C. Herbicidal pre-emergence efficacy, ALOMY; conditions: scored after about 3 weeks
Summary of the method: (§1)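 Pre-emergence test: formulated compounds sprayed as aqueous suspension or emulsion with 0.5% additive at 600 l/ha onto soil covering sown seeds, at rates corresponding to 320 g/ha or less. After about 3 weeks in greenhouse, efficacy scored visually as percent versus untreated controls (100% = plants dead).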

Stellaria media (STEME) = test: B. Herbicidal post-emergence efficacy, STEME
Summary of the method: (§2)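 Post-emergence greenhouse test: one-leaf-stage plants, compound (WP/EC, +0.5% additive, 600 L/ha water, ≤1280 g/ha) applied to green parts; % efficacy scored visually vs untreated after ~3 wk; 100% = plants died.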

[2] = test system: Polygonum convolvulus (POLCO); test: E. Herbicidal post-emergence efficacy, POLCO
Summary of the method: (§3)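 Compounds applied at 320 g/ha or less as a foliar spray (600 l/ha, 0.5% additive) to one-leaf-stage greenhouse plants grown in sandy loam. Damage is visually scored in percent relative to untreated plants after about 3 weeks.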

Kochia scoparia (KCHSC) = test: E. Herbicidal post-emergence efficacy, KCHSC
Summary of the method: as §3

Viola tricolor (VIOTR) = test: C. Herbicidal pre-emergence efficacy, VIOTR
Summary of the method: as §1

[3] = test system: Amaranthus retroflexus (AMARE); test: A. Herbicidal pre-emergence efficacy, AMARE
Summary of the method: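 Applied before emergence onto covering soil at rates of 1280 g/ha or less, using 600 L/ha spray water with 0.5% additive. Scoring: visual % efficacy after ~3 weeks, greenhouse.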

Veronica persica (VERPE) = test: E. Herbicidal post-emergence efficacy, VERPE
Summary of the method: as §3

Setaria viridis (SETVI) = test: B. Herbicidal post-emergence efficacy, SETVI
Summary of the method: as §2

SMILES	Pre-emergence efficacy against ALOMY ([1]; 320 g/ha)	Post-emergence efficacy against STEME (Stellaria media (STEME); 80 g/ha)	Post-emergence efficacy against STEME (Stellaria media (STEME); 320 g/ha)	Post-emergence efficacy against STEME (Stellaria media (STEME); 1280 g/ha)	Post-emergence efficacy against POLCO in % ([2]; application rate 320 g/ha)	Post-emergence efficacy against KCHSC in % (Kochia scoparia (KCHSC); application rate 320 g/ha)	Pre-emergence efficacy against VIOTR in % (Viola tricolor (VIOTR); application rate 80 g/ha)	Pre-emergence efficacy against VIOTR in % (Viola tricolor (VIOTR); application rate 320 g/ha)	Pre-emergence efficacy against AMARE in % ([3]; 80 g/ha)	Pre-emergence efficacy against AMARE in % ([3]; 320 g/ha)	Pre-emergence efficacy against AMARE in % ([3]; 1280 g/ha)	Post-emergence efficacy against VERPE in % (Veronica persica (VERPE); application rate 80 g/ha)	Post-emergence efficacy against VERPE in % (Veronica persica (VERPE); application rate 320 g/ha)	Post-emergence efficacy against POLCO in % ([2]; application rate 80 g/ha)	Post-emergence efficacy against KCHSC in % (Kochia scoparia (KCHSC); application rate 80 g/ha)	Post-emergence efficacy against SETVI (Setaria viridis (SETVI); 320 g/ha)	Post-emergence efficacy against SETVI (Setaria viridis (SETVI); 1280 g/ha)	Pre-emergence efficacy against ALOMY ([1]; 80 g/ha)
Cc1cccc(Oc2ncc(F)cn2)c1OS(=O)(=O)CCC(F)(F)F [Example I-45]	100%	100%	100%	100%	100%	90%	100%	100%	90%	100%	100%	80%	100%	–	–	–	–	–
O=S(=O)(CCC(F)(F)F)Oc1c(F)cccc1Oc1ncc(Br)cn1 [Example I-40]	100%	–	–	–	100%	100%	100%	100%	100%	100%	100%	100%	100%	100%	100%	90%	90%	–
CCCCS(=O)(=O)Oc1ccccc1Oc1ncc(Cl)cn1 [Example I-6]	90%	–	90%	90%	100%	–	80%	90%	100%	100%	100%	90%	90%	90%	–	–	90%	80%
O=S(=O)(CCCCl)Oc1ccccc1Oc1ncc(F)cn1 [Example I-5]	100%	100%	100%	100%	100%	–	100%	100%	100%	100%	100%	90%	100%	90%	–	90%	100%	90%
O=S(=O)(CCCCCl)Oc1ccccc1Oc1ncc(Cl)cn1 [Example I-15]	90%	100%	100%	100%	100%	–	100%	100%	100%	100%	100%	90%	100%	80%	–	–	100%	–
O=S(=O)(CCC(F)(F)F)Oc1ccccc1Oc1ncc(Cl)cn1 [Example I-8]	100%	–	90%	90%	90%	–	90%	90%	90%	90%	100%	90%	100%	90%	–	90%	90%	90%
Cc1cccc(Oc2ncc(F)cn2)c1OS(=O)(=O)CCCC(F)(F)F [Example I-46]	100%	90%	100%	100%	100%	100%	100%	100%	100%	100%	100%	100%	100%	–	–	–	–	–
O=S(=O)(CC1CC1)Oc1ccccc1Oc1ncc(Cl)cn1 [Example I-23]	100%	90%	100%	100%	100%	–	100%	100%	90%	100%	100%	90%	100%	100%	–	–	100%	80%
CCCS(=O)(=O)Oc1ccccc1Oc1ncc(Cl)cn1 [Example I-3]	100%	–	90%	100%	90%	–	90%	100%	100%	100%	100%	80%	90%	–	–	–	90%	–
O=S(=O)(CCC(F)(F)F)Oc1c(F)cccc1Oc1ncc(F)cn1 [Example I-47]	100%	100%	100%	100%	100%	100%	100%	100%	100%	100%	100%	100%	100%	100%	100%	–	–	100%
CC(C)CS(=O)(=O)Oc1ccccc1Oc1ncc(Cl)cn1 [Example I-7, [2-(5-Chloropyrimidin-2-yl)oxyphenyl] 2-methylpropane-1-sulfonate]	100%	–	90%	90%	100%	–	80%	100%	100%	100%	100%	90%	100%	–	–	–	90%	90%
O=S(=O)(CCl)Oc1ccccc1Oc1ncc(Cl)cn1 [Example I-9]	80%	–	–	90%	90%	–	90%	100%	100%	100%	100%	80%	90%	–	–	–	90%	–
N#Cc1cccc(Oc2ncc(Cl)cn2)c1OS(=O)(=O)CCCC(F)(F)F [Example I-81]	90%	–	–	–	100%	100%	100%	100%	–	–	–	100%	100%	90%	100%	–	–	–
O=S(=O)(CCCCl)Oc1c(F)cccc1Oc1ncc(Cl)cn1 [Example I-14]	100%	100%	100%	100%	90%	–	100%	100%	100%	100%	100%	100%	100%	80%	–	90%	100%	90%
O=S(=O)(CCCC(F)(F)F)Oc1c(F)cccc1Oc1ncc(F)cn1 [Example I-42]	100%	100%	100%	100%	100%	90%	100%	100%	100%	100%	100%	100%	100%	100%	90%	–	–	100%
